What was measured:
Format in all cases: in vivo
[1] = tested on: blackgrass (Alopecurus myosuroides); assay: Test A postemergence, blackgrass; details: Postemergence, 0 to 100 scale (0 no effect, 100 complete control); for Blackgrass plant response rating: visual injury vs untreated controls after approx. 10 days
Summary of the method: (§1)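 Compounds in non-phytotoxic solvent with surfactant. Soil: loam/sand. Preemergence via directed soil spray after seeding; postemergence on seedlings 2–10 cm, one- to two-leaf.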

[2] = tested on: Ryegrass, Italian (Italian ryegrass, Lolium multiflorum); assay: Test A postemergence, Ryegrass, Italian; details: Postemergence, 0 to 100 scale (0 no effect, 100 complete control); for Ryegrass, Italian plant response rating: visual injury vs untreated controls after approx. 10 days
Summary of the method: as §1

[3] = tested on: wheat (Triticum aestivum); assay: Test A postemergence, wheat; details: Postemergence, 0 to 100 scale (0 no effect, 100 complete control); for Wheat plant response rating: visual injury vs untreated controls after approx. 10 days
Summary of the method: (§2)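 Preemergence: pigweed seeds in loam soil–sand blend received a directed soil spray of test chemicals in a non-phytotoxic solvent with surfactant. Postemergence: barnyardgrass, wheat and galium in pots of the same soil, 2 to 10 cm tall at one- to two-leaf stage, sprayed with the same formulation.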

[4] = tested on: Foxtail, Giant (giant foxtail, Setaria faberi); assay: Test A postemergence, Foxtail, Giant; details: Postemergence, 0 to 100 scale (0 no effect, 100 complete control); for Foxtail, Giant plant response rating: visual injury vs untreated controls after approx. 10 days
Summary of the method: as §1

[5] = tested on: pigweed (Amaranthus retroflexus); assay: Test A preemergence, pigweed; details: for Pigweed plant response rating: visual injury on 0 to 100 scale (0 no effect, 100 complete control), approximately 10 days; for Plant response rating, Pigweed: 0 to 100 scale (0 no effect, 100 complete control)
Summary of the method: as §2

[6] = tested on: galium (catchweed bedstraw, Galium aparine); assay: Test A postemergence, galium; details: Postemergence, 0 to 100 scale (0 no effect, 100 complete control); for Galium plant response rating: visual injury vs untreated controls after approx. 10 days
Summary of the method: as §2

[7] = tested on: ragweed (common ragweed, Ambrosia artemisiifolia); assay: Test A postemergence, ragweed; details: Postemergence, 0 to 100 scale (0 no effect, 100 complete control); for Ragweed plant response rating: visual injury vs untreated controls after approx. 10 days
Summary of the method: as §1

[8] = tested on: Ryegrass, Italian (Italian ryegrass, Lolium multiflorum); assay: Test A preemergence, Ryegrass, Italian; details: Preemergence; for Ryegrass, Italian plant response rating: visual injury on 0 to 100 scale (0 no effect, 100 complete control), approximately 10 days; for Plant response rating, Ryegrass, Italian: 0 to 100 scale (0 no effect, 100 complete control)
Summary of the method: as §1

kochia (Bassia scoparia) [9] = assay: Test A preemergence, kochia; details: Preemergence; for Kochia plant response rating: visual injury on 0 to 100 scale (0 no effect, 100 complete control), approximately 10 days; for Plant response rating, Kochia: 0 to 100 scale (0 no effect, 100 complete control)
Summary of the method: as §1

[10] = tested on: Foxtail, Giant (giant foxtail, Setaria faberi); assay: Test A preemergence, Foxtail, Giant; details: Preemergence; for Foxtail, Giant plant response rating: visual injury on 0 to 100 scale (0 no effect, 100 complete control), approximately 10 days; for Plant response rating, Foxtail, Giant: 0 to 100 scale (0 no effect, 100 complete control)
Summary of the method: as §1

corn (Zea mays) = assay: Test A postemergence, corn; details: Postemergence, 0 to 100 scale (0 no effect, 100 complete control); for Corn plant response rating: visual injury vs untreated controls after approx. 10 days
Summary of the method: as §1

[11] = tested on: barnyardgrass (Echinochloa crus-galli); assay: Test A preemergence, barnyardgrass; details: Preemergence; for Barnyardgrass plant response rating: visual injury on 0 to 100 scale (0 no effect, 100 complete control), approximately 10 days; for Plant response rating, Barnyardgrass: 0 to 100 scale (0 no effect, 100 complete control)
Summary of the method: as §1

[12] = tested on: pigweed (Amaranthus retroflexus); assay: Test A postemergence, pigweed; details: Postemergence, 0 to 100 scale (0 no effect, 100 complete control); for Pigweed plant response rating: visual injury vs untreated controls after approx. 10 days
Summary of the method: as §1

[13] = tested on: ragweed (common ragweed, Ambrosia artemisiifolia); assay: Test A preemergence, ragweed; details: Preemergence; for Ragweed plant response rating: visual injury on 0 to 100 scale (0 no effect, 100 complete control), approximately 10 days; for Plant response rating, Ragweed: 0 to 100 scale (0 no effect, 100 complete control)
Summary of the method: as §1

kochia (Bassia scoparia) [14] = assay: Test A postemergence, kochia; details: Postemergence, 0 to 100 scale (0 no effect, 100 complete control); for Kochia plant response rating: visual injury vs untreated controls after approx. 10 days
Summary of the method: as §1

[15] = tested on: barnyardgrass (Echinochloa crus-galli); assay: Test A postemergence, barnyardgrass; details: Postemergence, 0 to 100 scale (0 no effect, 100 complete control); for Barnyardgrass plant response rating: visual injury vs untreated controls after approx. 10 days
Summary of the method: as §2

[16] = 125 g ai/ha, visual injury approx. 10 days
[17] = 500 g ai/ha, visual injury approx. 10 days
[18] = 125 g ai/ha, visual injury, approx. 10 days

SMILES: Cc1cc(C(F)(F)F)c(NS(=O)(=O)C(F)(F)F)cc1C(=O)N(C)C [Compound 132]
- Plant response rating, Blackgrass [1, 16]: 0
- Blackgrass plant response rating ([1]; 500 g ai/ha): 0
- Plant response rating, Ryegrass, Italian ([2]; 125 g ai/ha): 0
- Ryegrass, Italian plant response rating ([2]; 500 g ai/ha): 40
- Plant response rating, Wheat ([3]; 125 g ai/ha): 40
- Wheat plant response rating ([3]; 500 g ai/ha): 0
- Plant response rating, Foxtail, Giant [4, 16]: 20
- Foxtail, Giant plant response rating ([4]; 500 g ai/ha): 40
- Pigweed plant response rating ([5]; 125 g ai/ha): 100
- Plant response rating, Pigweed ([5]; 500 g ai/ha): 100
- Plant response rating, Galium [6, 16]: 70
- Galium plant response rating ([6]; 500 g ai/ha): 90
- Plant response rating, Ragweed ([7]; 125 g ai/ha): 60
- Ragweed plant response rating ([7]; 500 g ai/ha): 90
- Ryegrass, Italian plant response rating ([8]; 125 g ai/ha): 80
- Plant response rating, Ryegrass, Italian ([8]; 500 g ai/ha): 100
- Kochia plant response rating (kochia (Bassia scoparia) [9]; 125 g ai/ha): 0
- Plant response rating, Kochia (kochia (Bassia scoparia) [9]; 500 g ai/ha): 70
- Foxtail, Giant plant response rating ([10]; 125 g ai/ha): 30
- Plant response rating, Foxtail, Giant ([10]; 500 g ai/ha): 90
- Plant response rating, Corn (corn (Zea mays); [16]): 0
- Corn plant response rating (corn (Zea mays); 500 g ai/ha): 20
- Barnyardgrass plant response rating ([11]; 125 g ai/ha): 60
- Plant response rating, Barnyardgrass ([11]; 500 g ai/ha): 100
- Plant response rating, Pigweed ([12]; 125 g ai/ha): 70
- Pigweed plant response rating ([12]; 500 g ai/ha): 90
- Ragweed plant response rating ([13]; 125 g ai/ha): 80
- Plant response rating, Ragweed ([13]; 500 g ai/ha): 90
- Plant response rating, Kochia (kochia (Bassia scoparia) [14]; [16]): 20
- Kochia plant response rating (kochia (Bassia scoparia) [14]; 500 g ai/ha): 20
- Plant response rating, Barnyardgrass [15, 16]: 0
- Barnyardgrass plant response rating ([15]; 500 g ai/ha): 40

SMILES: Cc1cc(F)c(C(=O)N2CCOCC2)cc1NS(=O)(=O)C(F)(F)F [Compound 240]
- Plant response rating, Blackgrass ([1]; 125 g ai/ha): 0
- Plant response rating, Blackgrass [1, 17]: 10
- Plant response rating, Ryegrass, Italian ([2]; 125 g ai/ha): 30
- Plant response rating, Ryegrass, Italian [2, 17]: 60
- Plant response rating, Wheat ([3]; 125 g ai/ha): 0
- Plant response rating, Wheat [3, 17]: 30
- Plant response rating, Foxtail, Giant ([4]; 125 g ai/ha): 20
- Plant response rating, Foxtail, Giant [4, 17]: 60
- Plant response rating, Pigweed [5, 18]: 0
- Pigweed plant response rating ([5]; 500 g ai/ha): 80
- Plant response rating, Galium ([6]; 125 g ai/ha): 50
- Plant response rating, Galium [6, 17]: 70
- Plant response rating, Ragweed ([7]; 125 g ai/ha): 70
- Plant response rating, Ragweed [7, 17]: 90
- Plant response rating, Ryegrass, Italian [8, 18]: 40
- Ryegrass, Italian plant response rating ([8]; 500 g ai/ha): 70
- Plant response rating, Kochia (kochia (Bassia scoparia) [9]; [18]): 70
- Kochia plant response rating (kochia (Bassia scoparia) [9]; 500 g ai/ha): 90
- Plant response rating, Foxtail, Giant [10, 18]: 30
- Foxtail, Giant plant response rating ([10]; 500 g ai/ha): 80
- Plant response rating, Corn (corn (Zea mays); 125 g ai/ha): 20
- Plant response rating, Corn (corn (Zea mays); [17]): 10
- Plant response rating, Barnyardgrass [11, 18]: 0
- Barnyardgrass plant response rating ([11]; 500 g ai/ha): 50
- Plant response rating, Pigweed ([12]; 125 g ai/ha): 30
- Plant response rating, Pigweed [12, 17]: 50
- Plant response rating, Ragweed [13, 18]: 30
- Ragweed plant response rating ([13]; 500 g ai/ha): 50
- Plant response rating, Kochia (kochia (Bassia scoparia) [14]; 125 g ai/ha): 50
- Plant response rating, Kochia (kochia (Bassia scoparia) [14]; [17]): 80
- Plant response rating, Barnyardgrass ([15]; 125 g ai/ha): 40
- Plant response rating, Barnyardgrass [15, 17]: 70

SMILES: Cc1cc(Cl)c(C2=NOC3(CCCC3)C2)cc1NS(=O)(=O)C(F)(F)F [Compound 185]
- Plant response rating, Blackgrass ([1]; 125 g ai/ha): 0
- Blackgrass plant response rating ([1]; 500 g ai/ha): 10
- Plant response rating, Ryegrass, Italian ([2]; 125 g ai/ha): 0
- Ryegrass, Italian plant response rating ([2]; 500 g ai/ha): 0
- Plant response rating, Wheat ([3]; 125 g ai/ha): 0
- Wheat plant response rating ([3]; 500 g ai/ha): 0
- Plant response rating, Foxtail, Giant ([4]; 125 g ai/ha): 0
- Foxtail, Giant plant response rating ([4]; 500 g ai/ha): 0
- Pigweed plant response rating ([5]; 125 g ai/ha): 50
- Plant response rating, Pigweed ([5]; 500 g ai/ha): 80
- Plant response rating, Galium ([6]; 125 g ai/ha): 30
- Galium plant response rating ([6]; 500 g ai/ha): 70
- Plant response rating, Ragweed ([7]; 125 g ai/ha): 0
- Ragweed plant response rating ([7]; 500 g ai/ha): 40
- Ryegrass, Italian plant response rating ([8]; 125 g ai/ha): 50
- Plant response rating, Ryegrass, Italian ([8]; 500 g ai/ha): 100
- Kochia plant response rating (kochia (Bassia scoparia) [9]; 125 g ai/ha): 0
- Plant response rating, Kochia (kochia (Bassia scoparia) [9]; 500 g ai/ha): 0
- Foxtail, Giant plant response rating ([10]; 125 g ai/ha): 50
- Plant response rating, Foxtail, Giant ([10]; 500 g ai/ha): 100
- Plant response rating, Corn (corn (Zea mays); 125 g ai/ha): 0
- Corn plant response rating (corn (Zea mays); 500 g ai/ha): 0
- Barnyardgrass plant response rating ([11]; 125 g ai/ha): 70
- Plant response rating, Barnyardgrass ([11]; 500 g ai/ha): 100
- Plant response rating, Pigweed ([12]; 125 g ai/ha): 0
- Pigweed plant response rating ([12]; 500 g ai/ha): 40
- Ragweed plant response rating ([13]; 125 g ai/ha): 20
- Plant response rating, Ragweed ([13]; 500 g ai/ha): 70
- Plant response rating, Kochia (kochia (Bassia scoparia) [14]; 125 g ai/ha): 0
- Kochia plant response rating (kochia (Bassia scoparia) [14]; 500 g ai/ha): 10
- Plant response rating, Barnyardgrass ([15]; 125 g ai/ha): 0
- Barnyardgrass plant response rating ([15]; 500 g ai/ha): 20
